Entries after “also recorded” stand apart in the source; their conditions may differ. Read-outs that look alike come from different tables or passages of the source.
System: human breast cancer cell lines (MDA MB 231, MDA MB 435, MCF-7)
Experiment: Cytotoxic activity: cell proliferation (crystal violet staining) of human breast cancer cell lines
Experimental: All human tumor cell lines were obtained from the American Type Culture Collection. Cells were grown as monolayers in IMEM containing 10% fetal bovine serum without antibiotics. The cells were maintained in a humidified, 5% CO2 atmosphere at 37° C.
After trypsinization, the cells were counted and adjusted to a concentration of 1,000-2,000 cells per 100 mL. Cell proliferation was determined by plating the cells (1,000-2,000 cells/well) in a 96 well microtiter plate. After addition of 100 μL cells per well, the cells were allowed to attach for 24 hours. […] The polyphenols were dissolved in media at a 2 fold concentration and 100 μL of each solution was added in triplicate wells. On consecutive days, the plates were stained with 50 μL crystal violet (2.5 g crystal violet dissolved in 125 mL methanol, 375 mL water), for 15 min. The stain was removed and the plate was gently immersed into cold water to remove excess stain. The washings were repeated two more times, and the plates allowed to dry. The remaining stain was solubilized by adding 100 μL of 0.1 M sodium citrate/50% ethanol to each well. After solubilization, the number of cells were quantitated on an ELISA plate reader at 540 nm (reference filter at 410 nm).
Error bars represent +/− standard deviation of three replicate measurements.

[1] = breast cancer cell lines investigated, four days, various μg/mL concentrations, FIG. 1(a)-(d)

SMILES | cytotoxicity (cancer cell line growth at the end of four days as percent growth of the control) [1] | cytotoxicity (cancer cell line growth at the end of four days as percent growth of the control) | antineoplastic activity against several human breast cancer cell lines (comparison in words) (in vitro assessment of Example 25)
Oc1cc(O)c2c(c1)O[C@H](c1ccc(O)c(O)c1)[C@H](O)C2 [monomer (epicatechin), epicatechin, reference compound] | no cytotoxicity |  | 
Oc1cc(O)c2c(c1)O[C@H](c1ccc(O)c(O)c1)[C@H](O)[C@H]2c1c(O)cc(O)c2c1O[C@H](c1ccc(O)c(O)c1)[C@H](O)C2 [synthetic epicatechin dimer, EC-(4β→8)-EC] |  | no cytotoxicity | 
O=C(OC1Cc2c(O)cc(O)c(C3c4c(O)cc(O)c(C5c6c(O)cc(O)cc6OC(c6ccc(O)c(O)c6)C5OC(=O)c5cc(O)c(O)c(O)c5)c4OC(c4ccc(O)c(O)c4)C3OC(=O)c3cc(O)c(O)c(O)c3)c2OC1c1ccc(O)c(O)c1)c1cc(O)c(O)c(O)c1 (stereo not drawn) [synthetic epicatechin trimer trisgallate, [EC-3-O-galloyl-(4β→8)]2-EC-3-O-gallate] | cytotoxic effect equivalent to the pentamer and/or epigallocatechin gallate |  | activity equivalent to the pentamer; also recorded: greater antineoplastic activity when compared to the underivatized dimer and trimer
